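Protocol summary: plate cells (96-well), add compound at 5 concentrations, incubate 48 h, interpolate endpoints linearly. Here, GI50 denotes the concentration required for 50% inhibition of growth. The concentration for full growth arrest is given as TGI.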
What was measured:
Assay in all cases: NCI anticancer screen, dose series, 48 h
ACHN renal = test system: ACHN renal
NCI-H522 lung = test system: NCI-H522 lung
SF-268 CNS = test system: SF-268 CNS
786-0 renal = test system: 786-0 renal
RPMI-8226 leukemia = test system: RPMI-8226 leukemia
M14 melanoma = test system: M14 melanoma
A549 NSCLC = test system: A549 NSCLC
SNB-19 CNS = test system: SNB-19 CNS
HOP-92 NSCLC = test system: HOP-92 NSCLC
MALME-3M melanoma = test system: MALME-3M melanoma
SK-MEL-2 melanoma = test system: SK-MEL-2 melanoma
SF-539 CNS = test system: SF-539 CNS
MDA-N = test system: MDA-N
T-47D breast = test system: T-47D breast
HS 578T breast = test system: HS 578T breast

COC(=O)C1[C@@H](C(=O)OC)C12C=Cc1ccccc1C=C2 (some centres not stated)
TGI (ACHN renal): > 100 µM
TGI (NCI-H522 lung): > 100 µM
TGI (SF-268 CNS): > 100 µM
TGI (786-0 renal): > 100 µM
TGI (RPMI-8226 leukemia): > 100 µM
TGI (M14 melanoma): > 100 µM
TGI (A549 NSCLC): > 100 µM
TGI (SNB-19 CNS): > 100 µM
TGI (HOP-92 NSCLC): > 100 µM
TGI (MALME-3M melanoma): > 100 µM
TGI (SK-MEL-2 melanoma): > 100 µM
TGI (SF-539 CNS): > 100 µM

CC(=O)N(CCc1ccccc1)C(C#N)c1ccc(OCCCCCCCCCCOc2ccc(C(C#N)N(CCc3ccccc3)C(C)=O)cc2)cc1 (configuration not stated)
TGI (ACHN renal): > 100 µM
TGI (SF-268 CNS): 59.7 µM
TGI (786-0 renal): 50 µM
TGI (M14 melanoma): > 100 µM
TGI (MDA-N): > 100 µM
TGI (A549 NSCLC): > 100 µM
TGI (SNB-19 CNS): 88.1 µM
TGI (T-47D breast): > 100 µM
TGI (HOP-92 NSCLC): 43.5 µM
TGI (HS 578T breast): 56.1 µM
TGI (MALME-3M melanoma): > 100 µM
TGI (SK-MEL-2 melanoma): > 100 µM
TGI (SF-539 CNS): > 100 µM

CCSC1=N/C(=C\c2ccco2)C(Cl)=N1
TGI (ACHN renal): > 100 µM
TGI (SF-268 CNS): > 100 µM
TGI (786-0 renal): > 100 µM
TGI (RPMI-8226 leukemia): > 100 µM
TGI (M14 melanoma): > 100 µM
TGI (MDA-N): > 100 µM
TGI (A549 NSCLC): > 100 µM
TGI (SNB-19 CNS): > 100 µM
TGI (T-47D breast): > 100 µM
TGI (HOP-92 NSCLC): > 100 µM
TGI (HS 578T breast): > 100 µM
TGI (SK-MEL-2 melanoma): > 100 µM
TGI (SF-539 CNS): > 100 µM

COc1ccc(NC(C)=O)cc1C1CCC(=O)N1 (configuration not stated)
TGI (ACHN renal): > 100 µM
TGI (NCI-H522 lung): > 100 µM
TGI (SF-268 CNS): > 100 µM
TGI (786-0 renal): > 100 µM
TGI (RPMI-8226 leukemia): > 100 µM
TGI (M14 melanoma): > 100 µM
TGI (A549 NSCLC): > 100 µM
TGI (SNB-19 CNS): > 100 µM
TGI (T-47D breast): > 100 µM
TGI (HOP-92 NSCLC): > 100 µM
TGI (HS 578T breast): > 100 µM
TGI (MALME-3M melanoma): > 100 µM
TGI (SK-MEL-2 melanoma): > 100 µM
TGI (SF-539 CNS): > 100 µM

COc1cc(C2C3=C(COC3=O)Oc3cc4c(cc32)OCO4)ccc1OC(C)=O (configuration not stated)
TGI (ACHN renal): > 100 µM
TGI (SF-268 CNS): > 59.5 µM
TGI (786-0 renal): > 100 µM
TGI (RPMI-8226 leukemia): > 100 µM
TGI (M14 melanoma): > 100 µM
TGI (A549 NSCLC): > 100 µM
TGI (SNB-19 CNS): > 100 µM
TGI (T-47D breast): > 100 µM
TGI (HS 578T breast): 0.686 µM
TGI (MALME-3M melanoma): 0.565 µM
TGI (SK-MEL-2 melanoma): > 100 µM
TGI (SF-539 CNS): 0.749 µM

CN(C(=O)Cc1ccc(Cl)c(Cl)c1)[C@@H]1CCCC[C@H]1[N+]1(C)CC=CC1
TGI (ACHN renal): > 100 µM
TGI (NCI-H522 lung): > 100 µM
TGI (SF-268 CNS): > 100 µM
TGI (786-0 renal): > 100 µM
TGI (RPMI-8226 leukemia): > 100 µM
TGI (M14 melanoma): > 100 µM
TGI (MDA-N): > 100 µM
TGI (A549 NSCLC): > 100 µM
TGI (SNB-19 CNS): > 100 µM
TGI (T-47D breast): > 100 µM
TGI (HOP-92 NSCLC): > 100 µM
TGI (MALME-3M melanoma): > 100 µM
TGI (SK-MEL-2 melanoma): > 100 µM

COc1cc(NP(=O)(Oc2ccccc2)Oc2ccccc2)ccc1Nc1c2ccccc2nc2c1[nH]c1ccccc12
TGI (ACHN renal): 11.9 µM
TGI (NCI-H522 lung): 7.32 µM
TGI (SF-268 CNS): > 100 µM
TGI (786-0 renal): 1.58 µM
TGI (M14 melanoma): 7.02 µM
TGI (MDA-N): 15.4 µM
TGI (A549 NSCLC): 2.22 µM
TGI (SNB-19 CNS): > 100 µM
TGI (T-47D breast): 12.7 µM
TGI (HOP-92 NSCLC): 3.8 µM
TGI (HS 578T breast): 98.1 µM
TGI (MALME-3M melanoma): 29.1 µM
TGI (SK-MEL-2 melanoma): 22.6 µM

COc1ccc2cc(/C=N\NC(=O)Nc3cccc4ccccc34)ccc2c1
TGI (ACHN renal): 76.6 µM
TGI (NCI-H522 lung): > 100 µM
TGI (SF-268 CNS): > 100 µM
TGI (786-0 renal): 25.5 µM
TGI (M14 melanoma): > 100 µM
TGI (MDA-N): > 100 µM
TGI (A549 NSCLC): > 100 µM
TGI (SNB-19 CNS): 53.5 µM
TGI (HS 578T breast): 94.6 µM
TGI (MALME-3M melanoma): > 100 µM
TGI (SK-MEL-2 melanoma): > 100 µM
TGI (SF-539 CNS): > 100 µM

CCCCCCCCCCCCC(O)C1CCC(C(O)CCCCCCC(O)CCCCCCCC2=CC(C)OC2=O)O1 (configuration not stated)
GI50 (ACHN renal): 18.9 µM
TGI (ACHN renal): > 100 µM
TGI (NCI-H522 lung): 56.9 µM
GI50 (SF-268 CNS): 41.2 µM
TGI (SF-268 CNS): > 100 µM
TGI (786-0 renal): > 100 µM
GI50 (RPMI-8226 leukemia): 2.05 µM
TGI (RPMI-8226 leukemia): 22.3 µM
TGI (M14 melanoma): 45.7 µM
TGI (MDA-N): 71.7 µM
GI50 (A549 NSCLC): 21.7 µM
TGI (A549 NSCLC): > 100 µM
TGI (SNB-19 CNS): > 100 µM
GI50 (T-47D breast): 14.8 µM
TGI (T-47D breast): > 100 µM
TGI (HOP-92 NSCLC): 72.1 µM
TGI (MALME-3M melanoma): 56.7 µM
TGI (SK-MEL-2 melanoma): 61.1 µM

CNn1c(C)n[nH]c1=O
TGI (ACHN renal): > 100 µM
TGI (NCI-H522 lung): > 100 µM
TGI (SF-268 CNS): > 100 µM
TGI (786-0 renal): > 100 µM
TGI (RPMI-8226 leukemia): > 100 µM
TGI (M14 melanoma): > 100 µM
TGI (A549 NSCLC): > 100 µM
TGI (SNB-19 CNS): > 100 µM
TGI (T-47D breast): > 100 µM
TGI (HOP-92 NSCLC): > 100 µM
TGI (HS 578T breast): > 100 µM
TGI (MALME-3M melanoma): > 100 µM
TGI (SK-MEL-2 melanoma): > 100 µM
TGI (SF-539 CNS): > 100 µM

Cc1cc(NCCCCCCCCCC[n+]2c(C)cc(N)c3ccccc32)c2ccccc2n1
TGI (ACHN renal): 10.1 µM
TGI (NCI-H522 lung): > 100 µM
TGI (SF-268 CNS): > 39 µM
TGI (786-0 renal): 15.1 µM
TGI (RPMI-8226 leukemia): 2.28 µM
TGI (M14 melanoma): 12 µM
TGI (MDA-N): 3.61 µM
TGI (A549 NSCLC): 61.8 µM
TGI (T-47D breast): 12.3 µM
TGI (HOP-92 NSCLC): 7.62 µM
TGI (MALME-3M melanoma): 18.5 µM
TGI (SK-MEL-2 melanoma): 7.29 µM
TGI (SF-539 CNS): > 100 µM

O=C(c1ccco1)N(C(=S)N1CCN(c2ccccn2)CC1)C1CCCCC1
TGI (ACHN renal): > 100 µM
TGI (NCI-H522 lung): > 100 µM
TGI (SF-268 CNS): > 100 µM
TGI (786-0 renal): > 100 µM
TGI (RPMI-8226 leukemia): > 100 µM
TGI (M14 melanoma): > 100 µM
TGI (A549 NSCLC): > 100 µM
TGI (SNB-19 CNS): > 100 µM
TGI (HOP-92 NSCLC): > 100 µM
TGI (MALME-3M melanoma): > 100 µM
TGI (SK-MEL-2 melanoma): > 100 µM
TGI (SF-539 CNS): > 100 µM

CC1=NN(C(=O)c2ccccc2O)C(=O)/C1=C/c1ccccc1O
TGI (ACHN renal): 33.1 µM
TGI (NCI-H522 lung): 17.9 µM
TGI (SF-268 CNS): > 75.4 µM
TGI (786-0 renal): 44.4 µM
TGI (RPMI-8226 leukemia): > 100 µM
TGI (M14 melanoma): 48.4 µM
TGI (MDA-N): > 100 µM
TGI (A549 NSCLC): > 100 µM
TGI (SNB-19 CNS): > 100 µM
TGI (T-47D breast): 15.6 µM
TGI (HOP-92 NSCLC): 28.5 µM
TGI (MALME-3M melanoma): 74.4 µM
TGI (SK-MEL-2 melanoma): > 91.4 µM
TGI (SF-539 CNS): 2.45 µM

O=c1oc2ccccc2nc1/C=C(\O)c1ccc([N+](=O)[O-])cc1
TGI (ACHN renal): > 100 µM
TGI (NCI-H522 lung): > 100 µM
TGI (SF-268 CNS): > 100 µM
TGI (786-0 renal): > 100 µM
TGI (M14 melanoma): > 100 µM
TGI (A549 NSCLC): > 100 µM
TGI (SNB-19 CNS): > 100 µM
TGI (T-47D breast): > 100 µM
TGI (HS 578T breast): 95.1 µM
TGI (MALME-3M melanoma): > 100 µM
TGI (SK-MEL-2 melanoma): > 100 µM
TGI (SF-539 CNS): > 100 µM

CCCN1CN(C(C(=O)N[C@@H]2C(=O)N3C(C(=O)O)=C(C)CSC23)c2ccc(O)cc2)CSC1=S (some centres not stated)
TGI (ACHN renal): > 100 µM
TGI (NCI-H522 lung): > 100 µM
TGI (SF-268 CNS): > 100 µM
TGI (786-0 renal): > 100 µM
TGI (RPMI-8226 leukemia): > 100 µM
TGI (M14 melanoma): > 100 µM
TGI (A549 NSCLC): > 100 µM
TGI (SNB-19 CNS): > 100 µM
TGI (HOP-92 NSCLC): > 100 µM
TGI (MALME-3M melanoma): > 100 µM
TGI (SK-MEL-2 melanoma): > 100 µM
TGI (SF-539 CNS): > 100 µM

O=C(C[n+]1ccccc1)N=N/C(C(=O)Nc1c(Cl)c(O)c2ccccc2c1O)=C1/C(=O)Oc2cc(O)ccc2C1=O
TGI (ACHN renal): 19.2 µM
TGI (NCI-H522 lung): 7.3 µM
TGI (SF-268 CNS): > 100 µM
TGI (786-0 renal): > 100 µM
TGI (RPMI-8226 leukemia): 54.6 µM
TGI (M14 melanoma): 14.7 µM
TGI (A549 NSCLC): 11 µM
TGI (T-47D breast): 32.1 µM
TGI (HOP-92 NSCLC): 48.8 µM
TGI (SK-MEL-2 melanoma): 8.1 µM
TGI (SF-539 CNS): 16 µM

[N-]=[NH+]CC(=O)OC(COCc1ccccc1)COCc1ccccc1
TGI (ACHN renal): > 100 µM
TGI (NCI-H522 lung): > 100 µM
TGI (SF-268 CNS): > 100 µM
TGI (786-0 renal): > 100 µM
TGI (RPMI-8226 leukemia): > 100 µM
TGI (SNB-19 CNS): > 100 µM
TGI (HOP-92 NSCLC): > 100 µM
TGI (MALME-3M melanoma): > 100 µM
TGI (SK-MEL-2 melanoma): > 100 µM
